Results: publication PMC9946934, “Reconstitution of human pyroptotic cell death in Saccharomyces cerevisiae” (Scientific Reports, 2023)

What was measured:
Assay type in all cases: cell-based, Saccharomyces cerevisiae
caspase-3 = target: T1, caspase-3 (Homo sapiens, UniProt P42574); test: growth rescue of S. cerevisiae expressing active human caspase-3
T1 construct: gene CASP3; active caspase-3 fused to β-galactosidase (caspase-3–LacZ)
T1 sequence (P42574 29-175): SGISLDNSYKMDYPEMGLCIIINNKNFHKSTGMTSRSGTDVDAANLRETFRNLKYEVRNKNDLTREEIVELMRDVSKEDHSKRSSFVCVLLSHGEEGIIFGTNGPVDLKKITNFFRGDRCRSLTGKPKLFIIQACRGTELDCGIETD
T1 sequence (P42574 176-277): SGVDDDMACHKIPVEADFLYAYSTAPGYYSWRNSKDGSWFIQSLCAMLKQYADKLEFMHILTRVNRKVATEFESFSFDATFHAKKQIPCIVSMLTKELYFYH

caspase-1 = target: T2, caspase-1 (Homo sapiens, UniProt P29466); test: growth rescue of S. cerevisiae expressing human caspase-1
T2 construct: gene CASP1
T2 sequence (P29466 1-404): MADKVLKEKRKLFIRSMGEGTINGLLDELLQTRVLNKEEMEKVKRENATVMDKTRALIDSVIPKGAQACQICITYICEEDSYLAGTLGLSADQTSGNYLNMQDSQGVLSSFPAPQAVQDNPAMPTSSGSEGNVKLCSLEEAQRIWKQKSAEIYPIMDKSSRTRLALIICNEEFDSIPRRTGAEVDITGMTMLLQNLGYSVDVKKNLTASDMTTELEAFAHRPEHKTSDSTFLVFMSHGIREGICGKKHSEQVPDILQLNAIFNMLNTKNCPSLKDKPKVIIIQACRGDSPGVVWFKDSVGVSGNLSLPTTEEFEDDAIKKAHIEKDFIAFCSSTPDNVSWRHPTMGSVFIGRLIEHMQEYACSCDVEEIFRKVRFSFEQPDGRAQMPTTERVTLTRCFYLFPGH

caspase-8 = target: T3, caspase-8 (Homo sapiens, UniProt Q14790); test: growth rescue of S. cerevisiae expressing human caspase-8
T3 construct: gene CASP8
T3 sequence (Q14790 whole entry): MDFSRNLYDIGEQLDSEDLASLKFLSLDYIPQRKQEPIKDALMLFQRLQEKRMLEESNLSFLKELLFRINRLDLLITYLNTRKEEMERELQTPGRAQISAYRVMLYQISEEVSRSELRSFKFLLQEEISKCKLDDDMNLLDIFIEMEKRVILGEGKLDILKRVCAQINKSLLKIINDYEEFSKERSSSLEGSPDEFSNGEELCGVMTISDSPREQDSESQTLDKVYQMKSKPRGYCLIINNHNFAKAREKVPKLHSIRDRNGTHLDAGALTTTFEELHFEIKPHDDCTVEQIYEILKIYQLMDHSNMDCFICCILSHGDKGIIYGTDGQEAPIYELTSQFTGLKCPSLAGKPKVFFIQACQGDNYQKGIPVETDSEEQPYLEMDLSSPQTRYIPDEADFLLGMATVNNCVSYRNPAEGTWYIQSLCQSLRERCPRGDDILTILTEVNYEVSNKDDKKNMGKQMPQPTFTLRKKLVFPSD
Text: growth rescue of S. cerevisiae expressing human caspase-8 on caspase-8 | higher concentrations of QVD were needed to restore the growth rate of yeast expressing caspase-8

IC50 (caspase-3): 1.7 µM | IC50 (caspase-1): 21.4 µM | IC50 (caspase-8): 30 µM
SMILES: CC(C)[C@H](NC(=O)c1ccc2ccccc2n1)C(=O)N[C@@H](CC(=O)O)C(=O)COc1c(F)cccc1F [QVD, Q-VD-OPh]
